Target: T1, OsUGT79 (Oryza sativa, UniProt Q7XT97)
T1 construct: gene UGT79
T1 sequence (Q7XT97 1-466): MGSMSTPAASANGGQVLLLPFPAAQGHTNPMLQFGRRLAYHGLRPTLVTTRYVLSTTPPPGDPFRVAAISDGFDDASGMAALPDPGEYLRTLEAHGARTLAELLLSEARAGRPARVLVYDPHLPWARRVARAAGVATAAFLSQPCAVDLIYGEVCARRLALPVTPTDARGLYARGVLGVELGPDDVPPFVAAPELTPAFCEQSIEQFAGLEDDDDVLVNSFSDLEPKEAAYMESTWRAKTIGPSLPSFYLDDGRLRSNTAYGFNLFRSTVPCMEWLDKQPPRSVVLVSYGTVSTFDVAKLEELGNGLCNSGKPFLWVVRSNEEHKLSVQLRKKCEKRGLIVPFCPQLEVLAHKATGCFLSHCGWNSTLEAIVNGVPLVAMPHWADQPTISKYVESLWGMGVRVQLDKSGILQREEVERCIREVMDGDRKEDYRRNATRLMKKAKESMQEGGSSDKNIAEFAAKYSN
Test: glucosylation assay of purified recombinant enzyme with HPLC-MS/MS ([…] DON/[…] UDP-glucose)
Type: biochemical

## O=c1ccn([C@@H]2O[C@H](COP(=O)(O)OP(=O)(O)O)[C@@H](O)[C@H]2O)c(=O)[nH]1 [UDP]
  IC50: ~1500 µM

Reference: PMC4516937 (Toxins, 2015)
